Source: paper PMC7415757, “Monocrotaline-induced liver toxicity in rat predicted by a combined in vitro physiologically based kinetic modeling approach” (Archives of Toxicology, 2020)

Columns and labels:
primary rat hepatocytes [1] = assay: WST-1 cytotoxicity assay with primary rat hepatocytes; format: cell-based, rat (Sprague–Dawley)
Method: The monocrotaline-induced liver toxicity was tested in vitro using the WST-1 assay which measures the formazan formation by the metabolically active cells from WST-1. Pooled cryopreserved plateable male rat (Sprague–Dawley) hepatocytes (RTCP10™) were thawed and seeded in accordance with the manufacturer’s protocol. Briefly, cells were seeded in 96-well plates (Greiner bio-one, Alphen aan den Rijn, The Netherlands) at a concentration of 5 × 10^5 cells/ml to give 1.25 × 10^4 cells/well and incubated at 37 °C, 5% CO2 in a humidified atmosphere for 6 h to allow cell adherence. […] The solvent DMSO (0.5% (v/v) final concentration in exposure medium) was used as a negative control and triton X (final concentration 1% (v/v) in exposure medium) served as a positive control in all cytotoxicity assays. After exposure for 24 h, 5 μl (1:20 dilution) WST-1 reagent was added to each well and plates were incubated for an additional 1 h. Then, the plate was shaken at 1000 rpm for 1 min, and absorbance was measured at 440 nm (background absorbance at 620 nm was subtracted) using a SpectraMax M2 (Molecular Devices, Sunnyvale, USA).
Data are presented as mean values ± SE from three independent experiments with three different batches of rat hepatocytes. The cell viability was expressed as percentage of the solvent control, with the solvent control set at 100%. The obtained concentration–response curves for hepatotoxicity were fitted with a symmetrical sigmoidal model (Hill slope) which was further used to derive IC50 values using log [inhibitor] vs. normalized response using GraphPad Prism software (version 5.00 for Windows, GraphPad software, San Diego, USA).

[2] = Substrate depletion in incubations with pooled rat intestinal microsomes; format: in vitro ADME, rat (Sprague–Dawley)
Method: After 5 min of pre-incubation in a shaking water bath at 37 °C, the reactions were started by the addition of 1 mM NADPH. The reactions were carried out for 1 h and 2 h for liver and intestinal microsomes, respectively. For each incubation, a corresponding control incubated in the absence of NADPH was included by adding buffer instead of NADPH. To stop the metabolic conversion, 100 µl of ice-cold methanol was added and the sample was put on ice, then centrifuged at 5000 × g for 20 min at 4 °C using a microcentrifuge (CT15RE, VWR, Leuven, Belgium). Supernatants were diluted 200 times in 90% (v/v) acetonitrile and transferred to LC–MS vials. LC–MS analysis was performed using a Shimadzu Nexera XR LC-20AD SR UPLC system in tandem with a Shimadzu LCMS-8040 mass spectrometer (Shimadzu, Kyoto, Japan). From each incubation, 1 µl of supernatant was loaded onto a Luna Omega polar C18 100A LC column (1.6 µm 100 × 2.1 mm, Phenomenex) fitted with a FP polar precolumn (Phenomenex), using a flow rate of 0.3 ml/min. The temperature was set at 40 °C and 5 °C for column and sample, respectively. The mobile phase consisted of ultrapure water (solvent A) and acetonitrile (solvent B) both containing 0.1% (v/v) formic acid. The gradient began with 100% solvent A (0% B) for 1 min to wash away unwanted salts, followed by a linear gradient from 0 to 5% B till 8 min and a further increase to 100% B in 2 min, keeping the elution at 100% B for 0.5 min, then the column was set back to the starting conditions and equlibrated for 3.4 min before the next injection. […] For all incubations, three independent replicates were performed.
The ratio of Vmax and Km was calculated as the in vitro catalytic efficiency (kcat) expressed in […]. […] The rat liver weight of 8.5 g and small intestine weight of 3.5 g (see Table 1) (Brown et al. [1997]) were used to scaled the in vivo kcat values to values expressed in ml/min/tissue.

[3] = Fraction unbound in rat serum by rapid equilibrium dialysis (RED); format: in vitro ADME; settings: 37 °C, read-out: fub, in vivo (fraction unbound)
Method: The fub,in vivo was determined by rapid equilibrium dialysis (RED) (Waters et al. [2008]). […] The device was sealed with tape and incubated at 37 °C on a shaker at 250 rpm. After incubation for 5 h when the system reached equilibrium (van Liempd et al. [2011]), 50 µl of post-dialysis samples was collected from the serum and buffer chambers into separate eppendorf tubes. Subsequently, 50 µl of rat serum was added to the buffer samples and 50 µl of PBS was added to the serum samples. To precipitate the protein, 300 µl of ice-cold acetonitrile (90% v/v) was added to both tubes. After putting the mixtures on ice for 30 min, the mixtures were centrifuged at 15,000 g for 30 min at 4 °C, and the supernatants were diluted five times in 90% (v/v) acetonitrile and analyzed by LC–MS as described above. The measurements were performed in triplicate.

[4] = Reported blood kinetics after iv [14C] monocrotaline (Estep et al. 1991); format: in vivo; settings: rat, iv 60 mg/kg bw, from Estep et al. 1991
Method: The reported concentration nmol/g is assumed to be equal to nmol/ml or µM. The reported blood concentration is calculated as the sum of the plasma and RBC concentration.

primary rat hepatocytes [5] = assay: Uptake of monocrotaline into primary rat hepatocytes (Tu et al. 2013); format: cell-based; settings: scaled with 120 mg protein/g liver and 34 g liver/kg bw from Tu et al. ([2013])
HepaRG cells = tested on: HepaRG cells; design: method as in Louisse et al. ([2019]); settings: 24 h exposure; ref Louisse et al. ([2019]); cited from earlier work
[6] = tested on: human liver cell line HepaRG; settings: in vitro γH2AX induction potency, ref Louisse et al. ([2019]); cited from earlier work
[7] = design: method as in Lester et al. ([2019]); settings: ref Lester et al. ([2019]); cited from earlier work
[8] = intestine, 20.6 mg microsomal protein/g small intestine, present study
[9] = small intestine, PBK model code

For `C[C@H]1C(=O)O[C@@H]2CCN3CC=C(COC(=O)[C@](C)(O)[C@]1(C)O)[C@H]23` [Monocrotaline], the IC50 (primary rat hepatocytes [1]; Rattus norvegicus, Hepatocyte, 24 h exposure, serum-free medium, WST-1, read-out: IC50 cell viability) was 225 µM, the “decrease in cell viability” value (primary rat hepatocytes [1]; highest concentration 600 µM, 24 h) was “over 60%” and the Km ([2]; Sprague-Dawley, rat, pooled rat intestinal microsomes, pH 7.4, intestine, present study) was 13.4 µM. The “Scaled Vmax” value [2, 8] was 0.4 nmol/min/g tissue, the Scaled kcat [2, 8] was 0.03 ml/min/g tissue and the Vmax ([2]; intestine, present study) was 0.02 nmol/min/mg microsomal protein. The Scaled kcat ([2]; small intestine weight 3.5 g, present study) was 0.1 ml/min/ tissue, the “KmSiM2, affinity constant” value [2, 9] was 13.39 µmol/L and the “VmaxSiM2c, unscaled maximum rate of metabolism” value [2, 9] was 0.02 nmol/min-1/mg protein. The fraction unbound at 5 h, 150 µM [3] was 0.53 ± 0.12, the “Reported concentration of monocrotaline equivalents, blood (plasma + RBCs)” value (from here on “Reported concentration”) ([4]; 5 min) was 257.00 µM and the “Reported concentration” value ([4]; 15 min) was 195.34 µM. The “Reported concentration” value ([4]; 30 min) was 167.41 µM, the “Reported concentration” value ([4]; 60 min) was 149.97 µM and the “Reported concentration” value ([4]; 120 min) was 134.54 µM. The “Reported concentration” value ([4]; 180 min) was 121.75 µM, the “Reported concentration” value ([4]; 240 min) was 116.71 µM and the “Reported concentration” value ([4]; 300 min) was 92.88 µM. The “Reported concentration” value ([4]; 360 min) was 97.66 µM, the “Reported concentration” value ([4]; 420 min) was 92.00 µM and the “rate for uptake in the liver of rats, scaled” value (primary rat hepatocytes [5]) was 3.55 µmol/h/kg bw. For the same compound, the “cytotoxicity in HepaRG cells” value (HepaRG cells) was “did not exhibit cytotoxicity”, the potency group [6] was “group 3” and the metabolic stability [7] was “metabolically stable”.
